Like-named read-outs stand apart in the source and are kept apart here. Square brackets hold non-standard residues; d marks the D form. Peptide text beside a SMILES is read from it. * marks the point of attachment. Sta = CC(C)C[C@H](N)[C@@H](O)CC(=O)O; Isovaleryl = CC(C)CC(=O)*
Tested on: P. gingivalis 2561 binding to sHAP beads
Test: microbe, parasite or virus in culture
Format: cell-based, Porphyromonas gingivalis
[1] = Table 2, amount 0.1 mg, minus = enhancement of binding

## c1cnc2c(c1)ccc1cccnc12 [1,10-Phenanthroline]
Porphyromonas gingivalis
  inhibition at 1000 µM: -8%

## O=C[C@H](O)[C@@H](O)[C@@H](O)[C@H](O)C(=O)O [D-Galacturonic acid]
[1]
  Inhibition (%): 21%

## O=C[C@H](O)[C@@H](O)[C@H](O)[C@H](O)C(=O)O [D-Glucuronic acid]
[1]
  Inhibition (%): 33%

## O=C(O)CN(CCN(CC(=O)O)CC(=O)O)CC(=O)O [EDTA]
  Inhibition (%): 24

## C[C@H](O)[C@@H](O)[C@@H](O)[C@H](O)C=O [Fucose]
[1]
  Inhibition (%): 1%

## N[C@H]1C(O)O[C@H](CO)[C@H](O)[C@@H]1O (some centres unmarked) [Galactosamine]
[1]
  Inhibition (%): 8%

## O=C[C@H](O)[C@@H](O)[C@@H](O)[C@H](O)CO [Galactose]
[1]
  Inhibition (%): -7%

## N[C@H]1C(O)O[C@H](CO)[C@@H](O)[C@@H]1O (some centres unmarked) [Glucosamine]
[1]
  Inhibition (%): 0%

## O=C[C@H](O)[C@@H](O)[C@H](O)[C@H](O)CO [Glucose]
[1]
  Inhibition (%): -10%

## N=C(N)NCCC[C@H](N)C(=O)O [L-Arginine]
[1]
  Inhibition (%): 0%

## NCCCC[C@H](N)C(=O)O [L-Lysine]
[1]
  Inhibition (%): 5%

## OC[C@H]1O[C@@H](O[C@H]2[C@H](O)[C@@H](O)C(O)O[C@@H]2CO)[C@H](O)[C@@H](O)[C@H]1O (some centres unmarked) [Lactose]
[1]
  Inhibition (%): -1%

## CC(=O)N[C@@H](CC(C)C)C(=O)N[C@@H](CC(C)C)C(=O)N[C@H](C=O)CCCNC(=N)N [Leupeptin]
Porphyromonas gingivalis
  inhibition at 2 µM: 19%

## OC[C@H]1O[C@H](O[C@H]2[C@H](O)[C@@H](O)[C@H](O)O[C@@H]2CO)[C@H](O)[C@@H](O)[C@@H]1O [Maltose]
[1]
  Inhibition (%): -8%

## O=C[C@@H](O)[C@@H](O)[C@H](O)[C@H](O)CO [Mannose]
[1]
  Inhibition (%): -15%

## CC(=O)N[C@H]1C(O)O[C@H](CO)[C@H](O)[C@@H]1O (some centres unmarked) [N-Acetylgalactosamine]
[1]
  Inhibition (%): -5%

## CC(=O)N[C@H]1C(O)O[C@H](CO)[C@@H](O)[C@@H]1O (some centres unmarked) [N-Acetylglucosamine]
[1]
  Inhibition (%): -15%

## CC(C)CC(=O)N[C@H](C(=O)N[C@H](C(=O)N[C@@H](CC(C)C)[C@@H](O)CC(=O)N[C@@H](C)C(=O)N[C@@H](CC(C)C)[C@@H](O)CC(=O)O)C(C)C)C(C)C [Pepstatin] (Isovaleryl-VV[Sta]A[Sta]-OH)
Porphyromonas gingivalis
  inhibition at 1 µM: -10%

## O=S(=O)(F)Cc1ccccc1 [Phenylmethylsulfonyl fluoride]
Table 2, conc. 2 mM
  Inhibition (%): 13%

## CC(=O)N[C@H]1[C@H]([C@H](O)[C@H](O)CO)OC(O)(C(=O)O)C[C@@H]1O (some centres unmarked) [Sialic acid (N-acetyl neuraminic acid), N-acetyl neuraminic acid]
[1]
  Inhibition (%): 28%

## Defatted BSA: defatted BSA, agent tested in Table 2
Table 2, amount l mg
  Inhibition (%): 43%

## N-Acetyl neuramin-lactose
[1]
  Inhibition (%): 2%

## Poly-L-lysine
Table 2, amount 0.25 mg
  Inhibition (%): 41%

## poly-2,8-N-acetyl neuraminic acid
[1]
  Inhibition (%): 13%

B1: Trypsin, bovine pancreas type XIII-TPCK: trypsin from bovine pancreas, type XIII, TPCK treated (protein, UniProt P00760 24-246, looked up)
Serine protease 1: IVGGYTCGANTVPYQVSLNSGYHFCGGSLINSQWVVSAAHCYKSGIQVRLGEDNINVVEGNEQFISASKSIVHPSYNSNTLNNDIMLIKLKSAASLNSRVASISLPTSCASAGTQCLISGWGNTKSSGTSYPDVLKCLKAPILSDSSCKSAYPGQITSNMFCAGYLEGGKDSCQGDSGGPVVCSGKLQGIVSWGSGCAQKNKPGVYTKVCNYVSWIKQTIASN
modifications: TPCK treated
Table 2, amount 100 U
  Inhibition (%): 53%
sHAP beads pretreated with enzyme prior to being mixed with P. gingivalis cells
  Reduction of P. gingivalis binding after pretreatment of sHAP beads: approximately 50%
